ChEMBL document CHEMBL1158570, “Secondary metabolites from the roots of Litsea hypophaea and their antitubercular activity” (2010)
Values after ≈ are worked out from the molar mass of the structure shown.

Test system: Mycobacterium tuberculosis
Experiment: Antimycobacterial activity against Mycobacterium tuberculosis H37Rv after 2 weeks
Type: functional
Conditions: 336 h

SMILES | MIC [µg/mL]
COc1cc(/C=C/C(=O)NCCc2ccc(O)cc2)cc(OC)c1O [TRANS-N-SINAPOYLTYRAMINE] | > 100
COc1cc(/C=C/C(=O)NCCc2ccc(O)cc2)ccc1O [N-TRANS-FERULOYL TYRAMINE] | 60 (≈ 191 µM)
CC[C@@H](CO)NCCN[C@@H](CC)CO [ETHAMBUTOL] | 6.25 (≈ 30.6 µM)
COc1cc(OC)c(C[C@@H](O)Cc2ccc(OC)c(OC)c2)c(OC)c1 [HYPOPHAOL] | 100 (≈ 276 µM)
COc1cc(/C=C/C(=O)NCCc2ccc(O)c(OC)c2)ccc1O | 1.6 (≈ 4.66 µM)
CCCCCCCCCCCCC/C=C1/C(=O)O[C@](C)(OC)[C@@H]1O [LITSEAKOLIDE L] | 25 (≈ 73.4 µM)
COc1cc(C2c3c(cc(OC)c(O)c3OC)C=C(C(=O)NCCc3ccc(O)cc3)C2C(=O)NCCc2ccc(O)cc2)cc(OC)c1O (configuration not stated) | > 100
